ChEMBL document CHEMBL1201862, “PubChem BioAssay data set” (2004)
Activity calls are given as the source filed them. Rule as the data show it: actives have a measured IC50 and inactives only a lower limit.

Molecular target: Envelope glycoprotein gp160 (Human immunodeficiency virus 1, UniProt Q6QLK5)
Test: inhibitors of HIV fusion peptide binding, primary screen, biochemical, uHTS, fluorescence dequenching (AID 1986)

Envelope glycoprotein gp160, sequence (Q6QLK5 whole entry, the tested form may be a part): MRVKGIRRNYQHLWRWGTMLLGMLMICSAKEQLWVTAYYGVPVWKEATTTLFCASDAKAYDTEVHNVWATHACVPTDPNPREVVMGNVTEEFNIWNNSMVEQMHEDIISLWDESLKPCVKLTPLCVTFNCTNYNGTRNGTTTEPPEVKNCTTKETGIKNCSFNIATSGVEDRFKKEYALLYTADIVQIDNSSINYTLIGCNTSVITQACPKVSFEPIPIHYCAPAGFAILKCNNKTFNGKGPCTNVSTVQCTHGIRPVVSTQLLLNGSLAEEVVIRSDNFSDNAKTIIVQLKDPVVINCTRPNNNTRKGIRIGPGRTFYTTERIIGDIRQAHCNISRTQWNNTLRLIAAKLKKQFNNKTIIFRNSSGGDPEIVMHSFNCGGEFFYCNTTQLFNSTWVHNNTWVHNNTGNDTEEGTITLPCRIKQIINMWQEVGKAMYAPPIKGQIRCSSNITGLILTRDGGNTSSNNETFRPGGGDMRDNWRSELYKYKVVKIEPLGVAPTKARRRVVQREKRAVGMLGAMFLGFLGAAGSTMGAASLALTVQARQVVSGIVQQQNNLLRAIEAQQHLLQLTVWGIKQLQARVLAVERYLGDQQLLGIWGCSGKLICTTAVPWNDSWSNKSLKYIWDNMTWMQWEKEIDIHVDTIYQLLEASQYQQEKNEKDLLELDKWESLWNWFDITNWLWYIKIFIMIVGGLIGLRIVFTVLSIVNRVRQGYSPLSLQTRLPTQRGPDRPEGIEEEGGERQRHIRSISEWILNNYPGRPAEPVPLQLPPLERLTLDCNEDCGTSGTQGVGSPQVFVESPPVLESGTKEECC

Question: With Cc1c(CCC(=O)O)c(=O)oc2c(C)c3occ(-c4ccc(Br)cc4)c3cc12 as the compound, how does the IC50 read?
Answer: 21.3 µM (active)
